Read-outs that look alike come from different tables or passages of the source.

What all share (format): cell-based
Experiment [1] concerns the target T1, Aca-ACR-16 (Ancylostoma caninum, UniProt A0A5C1L5J1).
T1 sequence (A0A5C1L5J1 21-497): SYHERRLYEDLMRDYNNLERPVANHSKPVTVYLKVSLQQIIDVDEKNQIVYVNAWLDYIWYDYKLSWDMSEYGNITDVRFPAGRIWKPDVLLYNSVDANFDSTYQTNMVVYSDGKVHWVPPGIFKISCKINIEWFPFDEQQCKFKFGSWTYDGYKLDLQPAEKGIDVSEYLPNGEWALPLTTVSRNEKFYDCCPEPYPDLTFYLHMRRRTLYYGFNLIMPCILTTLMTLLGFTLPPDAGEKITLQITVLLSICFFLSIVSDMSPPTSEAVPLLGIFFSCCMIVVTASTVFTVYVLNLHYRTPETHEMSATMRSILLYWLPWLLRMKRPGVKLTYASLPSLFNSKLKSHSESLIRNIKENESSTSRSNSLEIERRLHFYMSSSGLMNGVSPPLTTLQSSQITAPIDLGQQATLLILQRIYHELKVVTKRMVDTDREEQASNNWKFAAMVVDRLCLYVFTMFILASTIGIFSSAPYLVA
In words: two-electrode voltage clamp, Xenopus oocytes, inhibition of ACh current. The conditions noted are these: read-out: % inhibition at 10 μM.

Experiment [2] has as its target T1, Aca-ACR-16. The description is as above. The conditions noted are these: read-out: % inhibition at 10 μM. The source holds these as a separate data set.
The target in experiment [3] is T1, Aca-ACR-16. As to the kind of experiment: two-electrode voltage clamp, Xenopus oocytes, peak current. Particulars: agonist; 10 s application; co-expressed with Asu-RIC-3.
For experiment [4], the target named is T1, Aca-ACR-16. The experiment is described as above.

Take `CNC1(C)C2CCC(C2)C1(C)C` (stereo not drawn) [mecamylamine]: the inhibition at 10 µM on Aca-ACR-16 [1] was determined as 98.8 ± 0.6%.
As for `CO[C@H]1CC=C2CCN3CCC4=C(CC(=O)OC4)[C@]23C1` [dihydro-β-erythroidine], on Aca-ACR-16 [2], the inhibition at 10 µM turned out to be 98.8 ± 0.4%.
As to `Clc1ccc(C2CC3CCC2N3)cn1` (stereo not drawn) [epibatidine], the “% of 100 μM ACh current at 100 μM” value at Aca-ACR-16 [3] came to 85.0 ± 4.0%.
As for `COc1cc2c3cc1Oc1cc(ccc1O)C[C@@H]1c4c(cc(OC)c(O)c4Oc4ccc(cc4)C[C@@H]3N(C)CC2)CC[N+]1(C)C` [d-tubocurarine], at Aca-ACR-16 [1], the inhibition at 10 µM amounted to 100 ± 0.1%.
As for `CN1C(=O)[C@]23C[C@H]4C(C)(C)[C@]5(CNc6c5ccc5c6OC=CC(C)(C)O5)C[C@@]41CN2CC[C@@]3(C)O` [derquantel], the inhibition at 10 µM on Aca-ACR-16 [1] was 72 ± 5.6%.
`CC(=O)OCC[N+](C)(C)C` [acetylcholine]: the EC50 at Aca-ACR-16 [4] turned out to be 50 µM.

For the origin of these results see article PMC7869652 (Invertebrate neuroscience : IN, 2019).
